From patent US8124390B2, “Aromatic prenyltransferases, nucleic acids encoding same and uses therefor” (The Salk Institute for Biological Studies, priority 2005, dated 2012)

How the values were obtained:
Orf2 [1] = test: Detection of prenyltransferase activity of ORF2, TLC with UV 254 nm, incl. Mg2+ dependence; assay type: biochemical, Streptomyces sp. strain CL190; conditions: for reaction products of prenyl acceptor with ORF2: additional studies of Example 5; for prenyltransferase activity of ORF2: 5 mM prenyl acceptor, 5 mM MgCl2, 4 hrs room temperature; for prenylated products with ORF2: 5 mM DHN2, 5 mM GPP
Orf2 [2] = test: Promiscuous activity of ORF2 with flavonoids and other compounds, [14C]GPP TLC; assay type: biochemical, Streptomyces sp. strain CL190; conditions: for function as substrates for Orf2 (converted into prenylated derivatives): purified recombinant Orf2 incubated with prenyl donor and prenyl acceptor, FIGS. 2A and 2B; for Orf2 prenyltransferase activity in the presence of flavonoids, isoflavonoids and related compounds: GPP as prenyl donor, FIG. 2B
Experimental: FIG. 2B illustrates the promiscuous activity of Orf2. Several assays were conducted, employing a variety of potential substrates, i.e., 1,3-DHN (1), 1,6-DHN (2), 2,7-DHN (3), 4-HPP (4) and several isoflavonoids and polyketide derivatives, including daidzein (7,4′-dihydroxyisoflavonone, 5), formononetin (7-hydroxy, 4′-methoxyisoflavonone, 6), fisetin (3,3′,4′,7-tetrahydroxyflavone, 7), genistein (5,7,4′-trihydroxyisoflavone, 8), naringenin (5,7,4′-trihydroxyflavonone, 9), flaviolin (10), olivetol (11), olivetolic acid (12), and resveratrol (3,4′,5-trihydroxystilbene, 13). The chemical structures of four reaction products (i.e., 1,6-dihydroxy 2-geranyl naphthalene (14), 1,6-dihydroxy 5-geranyl naphthalene (15), 6-geranyl naringenin (16) and 7-O-geranyl naringenin (17)) were determined by both MS and ^1H NMR analyses. The reaction buffer consisted of 50 mM HEPES (pH 7.5), 5 mM MgCl2, and 0.1 mM GPP, 0.009 mM [^14C]GPP, and 0.1 mM of each substrate, in a final volume of 20 μl. The reaction was initiated by adding 30 μg of Orf2 to the assay mixture. After incubation at 25° C. for 6 hours, the mixture was dried, and spotted on a silica gel TLC plate. The TLC plate was developed with a chloroform/methanol (15:1) solvent mixture. Reaction products were detected with a [^14C] imaging plate (Fuji Photo Film).
The reaction buffer employed contained 50 mM HEPES (pH 7.5), 5 mM DTT (as needed), 5 mM MgCl2, 0.1 mM of each prenyl acceptor, 0.1 mM GPP, and 0.01 mM [^14C]GPP in a final volume of 20 μl. The reaction was initiated by adding 20 μg of ORF2 protein to the assay mixture. After incubation at room temperature for 4 hrs., the reaction mixture was dried using SpeedVac and the dried residue was spotted on a silica gel TLC plate. The plate was developed with chloroform:methanol (15-30:1). Reaction products were detected with a phosphoimager. The compounds tested were daidzein, fisetin, formononetin, genistein, naringenin, 4-HPP and DHN2.

HypSc = test: Detection of prenyltransferase activity of HypSc (TLC); assay type: biochemical, Streptomyces coelicolor A3(2); conditions: for reaction products of prenyl acceptor with hypSc: assay of Example 5 repeated with hypSc
Experimental: FIG. 7 relates to the functional evaluation of HypSc. Thus, HypSc prenyltransferase activity was assayed as described above with respect to FIG. 2A, using 1,6-DHN as a prenyl acceptor (in each of lanes 1-4), with no prenyl acceptor in lane 1, DMAPP in lanes 2 and 3, and GPP in lane 4. No Mg^2+ was used in lane 2. The samples were incubated overnight at room temperature.
In order to validate this model, HypSc was subcloned from genomic DNA, and over-expressed in E. coli as an octa-histidine tagged protein and purified for Ni^2+-chelation chromatography. The purified enzyme was then assayed for prenyltransferase activity using DMAPP and GPP as prenyl donors.
The assay described in Example 5 was repeated with hypSc and (a) 1,6-DHN (2), (b) 2,7-DHN (3), (c) daidzein ([…], 5), (d) genistein (5,7,4′-trihydroxyisoflavone, 8), (e) naringenin (5,7,4′-trihydroxyflavonone, 9), (f) olivetol (12), and (g) resveratrol (3,4′,5-trihydroxystilbene, 13).

antibacterial = conditions: Schutz, Phytochemistry 40:1273-1277 (1995); cited from earlier work

CC(C)=CCC/C(C)=C/COP(=O)(O)OP(=O)(O)O [GPP, geranyl diphosphate]
relative activity of Orf2 with prenyl donor (Orf2 [1]; purified recombinant Orf2, prenyl donor DMAPP (C5), GPP (C10) or FPP (C15) with aromatic acceptors): highest relative activity

N[C@@H](Cc1ccccc1)C(=O)O [phenylalanine]
function as substrates for Orf2 (converted into prenylated derivatives) (Orf2 [2]): did not serve as substrates

O=C(O)C(=O)Cc1ccc(O)cc1 [4-HPP, 4-hydroxyphenylpyruvate]
function as substrates for Orf2 (converted into prenylated derivatives) (Orf2 [2]): converted by Orf2 into a prenylated derivative

CCCCCc1cc(O)cc(O)c1 [olivetol]
reaction products of prenyl acceptor with ORF2 (Orf2 [1]): 2-geranyl-olivetol and 4-geranyl-olivetol
reaction products of prenyl acceptor with hypSc (HypSc): 2-dimethylallyl-olivetol and 4-dimethylallyl-olivetol
Orf2 prenyltransferase activity in the presence of flavonoids, isoflavonoids and related compounds (Orf2 [2]): active

O=c1c(-c2ccc(O)cc2)coc2cc(O)cc(O)c12 [genistein, 5,7,4′-trihydroxyisoflavone]
reaction products of prenyl acceptor with ORF2 (Orf2 [1]): 7-O-geranyl-genistein
reaction products of prenyl acceptor with hypSc (HypSc): no reaction products detected
Orf2 prenyltransferase activity in the presence of flavonoids, isoflavonoids and related compounds (Orf2 [2]): showed prenyltransferase activity

O=C1C(O)=CC(=O)c2c(O)cc(O)cc21 [flaviolin, 2,5,7-trihydroxy-1,4-naphthoquinone]
function as substrates for Orf2 (converted into prenylated derivatives) (Orf2 [2]): function as substrates

N[C@@H](Cc1ccc(O)cc1)C(=O)O [tyrosine]
function as substrates for Orf2 (converted into prenylated derivatives) (Orf2 [2]): did not serve as substrates

Oc1cc(O)c2ccccc2c1 [1,3-DHN, 1,3-dihydroxynaphthalene]
prenyltransferase activity of ORF2 (Orf2 [1]; either prenyl donor FPP or GPP): prenyltransferase activity was observed
function as substrates for Orf2 (converted into prenylated derivatives) (Orf2 [2]): function as substrates

CCCCCc1cc(O)cc(O)c1C(=O)O [olivetolic acid]
Orf2 prenyltransferase activity in the presence of flavonoids, isoflavonoids and related compounds (Orf2 [2]): active

CC(C)=CCC/C(C)=C/Cc1c(O)cc2c(c1O)C(=O)C[C@@H](c1ccc(O)cc1)O2 [6-geranyl naringenin]
antibacterial activity (antibacterial): significant antibacterial activity

Oc1ccc(C=Cc2cc(O)cc(O)c2)cc1 [resveratrol, 3,4′,5-trihydroxystilbene]
reaction products of prenyl acceptor with ORF2 (Orf2 [1]): 4-geranyl-resveratrol
reaction products of prenyl acceptor with hypSc (HypSc): 4-dimethylallyl-resveratrol
Orf2 prenyltransferase activity in the presence of flavonoids, isoflavonoids and related compounds (Orf2 [2]): showed prenyltransferase activity

Oc1ccc2c(O)cccc2c1 [1,6-DHN, 1,6-dihydroxynaphthalene]
prenylated products with ORF2 (Orf2 [1]; absence of magnesium): no prenylated products were observed
prenylated products with ORF2 (Orf2 [1]; presence of magnesium (5 mM MgCl2)): prenylated products were readily observed
prenyltransferase activity of ORF2 (Orf2 [1]; either prenyl donor FPP or GPP): prenyltransferase activity was observed
prenylated products detected by thin layer chromatography (Orf2 [1]; Orf2 incubated with 1,6-DHN and GPP): readily detected
reaction products of prenyl acceptor with ORF2 (Orf2 [1]): 5-geranyl-1,6-DHN and 2-geranyl-1,6-DHN
prenyltransferase activity of HypSc (HypSc; DMAPP as prenyl donor, absence of Mg2+): Notable prenyltransferase activity was detected
reaction products of prenyl acceptor with hypSc (HypSc): 5-dimethylallyl-1,6-DHN
function as substrates for Orf2 (converted into prenylated derivatives) (Orf2 [2]): function as substrates

O=c1c(O)c(-c2ccc(O)c(O)c2)oc2cc(O)ccc12 [fisetin, 3,3′,4′,7-tetrahydroxyflavone]
Orf2 prenyltransferase activity in the presence of flavonoids, isoflavonoids and related compounds (Orf2 [2]): little or no activity

Oc1ccc2ccc(O)cc2c1 [2,7-DHN]
prenyltransferase activity of ORF2 (Orf2 [1]; prenyl donor GPP): prenyltransferase activity was observed
reaction products of prenyl acceptor with ORF2 (Orf2 [1]): 1-geranyl-2,7-DHN and 1,6-digeranyl-2,7-DHN
reaction products of prenyl acceptor with hypSc (HypSc): 1-dimethylallyl-2,7-DHN
function as substrates for Orf2 (converted into prenylated derivatives) (Orf2 [2]): function as substrates
